Article PMC6459286, “Intestinal TGR5 agonism improves hepatic steatosis and insulin sensitivity in Western diet-fed mice” (American Journal of Physiology - Gastrointestinal and Liver …, 2019)
Marks after values point to notes of the source that are not given here.

Columns and labels:
[1] = system: intestinal L-cell hormones (aGLP-1, tGLP-1, tGLP-2, PYY); test: Secretion of intestinal L-cell hormones in mice fed a standard diet; type: in vivo, C57BL/6 mice; details: repeat dosing 4 days, 8 h
Procedure: Adult male C57BL/6 mice (Taconic) fed standard chow (Harlan Teklad 2018) were dosed orally with vehicle (2% DMSO, 10% HPβCD, 10 mM PBS-HCl) or RDX8940 in separate experiments, as described below. After dosing, mice were anesthetized, and blood was collected via cardiac puncture into K3EDTA-containing tubes (Greiner Bio-one); then, the mice were euthanized. If active GLP-1 (aGLP-1) concentrations were measured, sitagliptin and aprotinin were added to the tubes before blood collection. Blood was processed to plasma for the measurement of incretins; aGLP-1, tGLP-1, and PYY concentrations were assessed using MSD immunoassays (Meso Scale Discovery), whereas total GLP-2 (tGLP-2) concentrations were quantified using a mouse GLP-2 ELISA (ALPCO, Salem, NH).
In the first experiment, mice were administered vehicle or a single dose of RDX8940 (10, 30, or 100 mg/kg), fasted, and plasma tGLP-1 concentrations were measured 8 h after dose. In a second experiment, mice were administered repeated doses of vehicle or RDX8940 30 mg/kg twice daily over 4 days. After the last dose, the mice were fasted and plasma tGLP-1 concentrations were measured 8 h later. […] After the single or last dose, the mice were fasted, and plasma concentrations of aGLP-1, tGLP-1, tGLP-2, and PYY were measured 8, 10, and 12 h later. […]

[2] = system: C57BL/6 mice fed Western diet; test: Western diet-fed mice (NAFLD and mild insulin resistance model); type: in vivo; details: for 4-h fasted plasma glucose vs vehicle: days 15 and 29, agent alone
Procedure: Six-week-old male C57BL/6 mice (Taconic) were fed Western diet chow (Harlan Teklad TD.88137, 21.2% fat, 0.2% cholesterol, 42.0% kcal from fat) for 10 wk to model NAFLD and mild insulin resistance. […] An additional vehicle (administered orally twice daily) control group (lean) was fed standard chow (Harlan Teklad 2018) throughout the study (n = 10). […], mice were fasted for 4 h after the first dose, and blood was then collected via the tail vein for measurement of plasma glucose and insulin concentrations using a glucometer (Abbott Animal Health, Abbott Park, IL) and an MSD immunoassay (Meso Scale Discovery), respectively. On day 29, mice were fasted longer (a total of 7–8 h), were anesthetized, and had blood collected via cardiac puncture for the measurement of GLP-1 levels. Mice were then euthanized under anesthesia for the collection of liver tissue. Hepatic triglyceride and cholesterol content were determined at the University of California, Davis, CA, using the Folch method ([17]).

[3] = Caco-2 bidirectional permeability assay; details: human, Caco-2; for recovery: Caco-2, Recovery
C57BL/6 mice fed HFCD = test: GLP-1 and GLP-2 agonists in HFCD-fed mice; type: in vivo; details: for Plasma glucose: 4-h fasted; for Plasma glucose / Plasma total cholesterol / Plasma triglycerides: day 28, means ± SE; for Plasma total bilirubin levels: data not shown; for Body weight: day 33, liraglutide 200 µg/kg or teduglutide 400 µg/kg sc twice daily, means ± SE; for Plasma insulin: day 34, means ± SE; for HFCD-increased hepatic expression of genes involved in inflammation and fibrotic processes: liver RNA sequencing
Procedure: At 19 wk old, mice began treatment. […] Mice were weighed each week. Before treatment and on days 14 and 28 of treatment, the mice were fasted for 4 h, and blood was then collected via the tail vein and processed to plasma for measurement of alanine aminotransferase (ALT), aspartate aminotransferase (AST), alkaline phosphatase (AP), glucose, triglycerides, and total cholesterol using an ACE Axcel clinical analyzer (Alfa Wassermann, West Caldwell, NJ). After 34 days of treatment, the mice were fasted for 6–8 h and were euthanized under anesthesia. Blood was collected and processed to plasma for measurement of insulin [using an MSD immunoassay (Meso Scale Discovery)], and ALT, AST, AP, and total bilirubin levels [using an ACE Axcel clinical analyzer (Alfa Wassermann)]. The entire liver was collected and weighed, and samples of liver were weighed for measurement of triglycerides and total cholesterol levels at University of California, Davis, CA [using the Folch method ([17])]; histological assessments of steatosis, inflammation, and fibrosis were performed using hematoxylin-and-eosin stains, and Sirius red stains (Wax-it Histology Services, Vancouver, BC, Canada and Pacific Tox Path, Ellensburg, WA). Scoring of hepatic pathology was conducted according to descriptions provided by Thoolen et al. ([32]). For gene expression studies, total RNA from mouse liver tissues was isolated using a RNeasy 96 universal tissue kit (Qiagen, Hilden, Germany). A gene expression library was prepared with 100 ng of each RNA sample using a TruSeq Stranded mRNA Library NeoPrep kit (Illumina, Hayward, CA). Library samples were subsequently multiplexed and sequenced using an Illumina NextSeq 500 sequencer (San Diego, CA). Sequences of two 75-base pair ends were obtained for all samples and mapped to the mouse transcriptome, using STAR (Spliced Transcripts Alignment to a Reference) alignment with default parameters (Basespace Cloud, Illumina) and normalized using trimmed mean of M-values method in EdgeR software (Bioconductor; https://www.bioconductor.org/). Differentiation gene expression analysis was evaluated using EdgeR. R platform (https://www.r-project.org/) was used for principal component analysis and heat map analysis. Gene ontology and network correlation analysis were performed using Gorilla (http://cbl-gorilla.cs.technion.ac.il/) and WGNCA (https://horvath.genetics.ucla.edu/html/CoexpressionNetwork/Rpackages/WGCNA/).

MDCK cell monolayers = test: MDCK bidirectional permeability assay
Caco-2 cell monolayers = test: Caco-2 bidirectional permeability assay
P-gp = test: MDCK bidirectional permeability assay; details: dog; for recovery: + verapamil 100 μM
gallbladder emptying = test: Gallbladder emptying in mice; details: CD-1 mice, single oral dose; RDX8940 30 and 100 mg/kg, INT-777 30 mg/kg

**Q.** With `CC#CCn1c(N2CCC[C@@H](N)C2)nc2c1c(=O)n(Cc1nc(C)c3ccccc3n1)c(=O)n2C` [linagliptin] as the compound, how does the “aGLP-1 levels in the portal vein vs vehicle” value ([1]; monotherapy (RDX8940 30 mg/kg b.i.d.; linagliptin 10 mg/kg q.d.)) read?
**A.** Its value is “did not significantly affect”.

**Q.** What about the “Systemic concentrations of aGLP-1 vs vehicle” value ([1]; monotherapy) of the same compound?
**A.** Its value is “did not significantly increase”.

**Q.** What about the “4-h fasted plasma insulin vs vehicle” value ([2]; day 29, agent alone) of the same compound?
**A.** Its value is “lowered”.

**Q.** And the “4-h fasted plasma glucose vs vehicle” value [2]?
**A.** The value was “lowered”.

**Q.** Which results are given for `CC(CCc1ccccc1)NCC(O)c1ccc(O)c(C(N)=O)c1` (stereo not shown) [Labetalol]?
**A.** Papp A→B at 10 µM [3]: 19.4 ×10⁻⁶ cm/s; Papp B→A at 10 µM [3]: 31.6 ×10⁻⁶ cm/s; recovery ([3]; A→B): 64%; recovery ([3]; B→A): 80%

**Q.** For teduglutide, which “Hepatic total cholesterol content vs vehicle” value (C57BL/6 mice fed HFCD) is on record?
**A.** The value was “significantly decreased”.

**Q.** What about the “Hepatic triglyceride content vs vehicle” value (C57BL/6 mice fed HFCD) of the same compound?
**A.** Its value is “significantly decreased”.

**Q.** What about the “Hepatic weight vs vehicle” value (C57BL/6 mice fed HFCD) of the same compound?
**A.** The value was “significantly decreased”.

**Q.** What about the “Plasma ALT levels vs vehicle” value (C57BL/6 mice fed HFCD) of the same compound?
**A.** Its value is “significantly decreased”.

**Q.** What about the “Plasma AP levels vs vehicle” value (C57BL/6 mice fed HFCD) of the same compound?
**A.** The value was “significantly decreased”.

**Q.** And the “Plasma AST levels vs vehicle” value (C57BL/6 mice fed HFCD)?
**A.** The value was “significantly decreased”.

**Q.** What about the Plasma glucose (C57BL/6 mice fed HFCD) of the same compound?
**A.** The Plasma glucose was 205 ± 5 mg/dL.

**Q.** And the “Plasma total bilirubin levels” value (C57BL/6 mice fed HFCD)?
**A.** The value was “Neither liraglutide nor teduglutide significantly affected”.

**Q.** And the Plasma total cholesterol (C57BL/6 mice fed HFCD)?
**A.** The Plasma total cholesterol was 279 ± 16 mg/dL.

**Q.** And the Plasma triglycerides (C57BL/6 mice fed HFCD)?
**A.** Its Plasma triglycerides is 84 ± 1 mg/dL.

**Q.** What about the Body weight (C57BL/6 mice fed HFCD) of the same compound?
**A.** Its Body weight is 37.9 ± 0.9 g.

**Q.** And the Plasma insulin (C57BL/6 mice fed HFCD)?
**A.** The Plasma insulin was 0.95 ± 0.20 ng/mL.

**Q.** What about the “HFCD-increased hepatic expression of genes involved in inflammation and fibrotic processes” value (C57BL/6 mice fed HFCD) of the same compound?
**A.** Its value is “abrogated this effect in many cases”.

**Q.** What about the Fibrosis score (C57BL/6 mice fed HFCD; median) of the same compound?
**A.** Its Fibrosis score is 2.

**Q.** What about the Macrovesicular steatosis score (C57BL/6 mice fed HFCD; median) of the same compound?
**A.** Its Macrovesicular steatosis score is 2.00 ^*.

**Q.** And the Microvesicular steatosis score (C57BL/6 mice fed HFCD; median)?
**A.** Its Microvesicular steatosis score is 2.0.

**Q.** For `CC(C)NCC(O)COc1cccc2ccccc12` (stereo not shown) [Propranolol], which “Papp A→B” value (MDCK cell monolayers; 10 μM, without verapamil) is on record?
**A.** The value was 14.19 cm/s × 10^−6.

**Q.** What about the “Papp B→A” value (MDCK cell monolayers; 10 μM, without verapamil) of the same compound?
**A.** The value was 7.03 cm/s × 10^−6.

**Q.** What about the “Recovery, B→A” value (MDCK cell monolayers; + verapamil 100 μM) of the same compound?
**A.** The value was 98%.

**Q.** And the “Recovery, A→B” value (Caco-2 cell monolayers; Caco-2)?
**A.** Its value is 56%.

**Q.** What about the “Recovery, B→A” value (Caco-2 cell monolayers; Caco-2) of the same compound?
**A.** The value was 78%.

**Q.** What about the “Papp A→B” value (Caco-2 cell monolayers; Caco-2, 10 μM) of the same compound?
**A.** The value was 67.06 cm/s × 10^−6.

**Q.** What about the “Papp B→A” value (Caco-2 cell monolayers; Caco-2, 10 μM) of the same compound?
**A.** The value was 19.62 cm/s × 10^−6.

**Q.** With `COc1cc2c(c(OC)c1OC)-c1ccc(OC)c(=O)cc1[C@@H](NC(C)=O)CC2` [Colchicine] as the compound, how does the Papp A→B at 10 µM (P-gp) read?
**A.** The Papp A→B at 10 µM was 0.85 ×10⁻⁶ cm/s.

**Q.** And the Papp B→A at 10 µM (P-gp)?
**A.** The Papp B→A at 10 µM was 2.31 ×10⁻⁶ cm/s.

**Q.** What about the efflux ratio at 10 µM (P-gp) of the same compound?
**A.** The efflux ratio at 10 µM was 2.72.

**Q.** And the recovery (P-gp; A→B)?
**A.** The recovery was 120%.

**Q.** What about the recovery (P-gp; B→A) of the same compound?
**A.** Its recovery is 113%.

**Q.** And the Papp A→B at 10 µM [3]?
**A.** The Papp A→B at 10 µM was 0.23 ×10⁻⁶ cm/s.

**Q.** And the Papp B→A at 10 µM [3]?
**A.** Its Papp B→A at 10 µM is 6.18 ×10⁻⁶ cm/s.

**Q.** What about the efflux ratio at 10 µM [3] of the same compound?
**A.** Its efflux ratio at 10 µM is 27.4.

**Q.** And the recovery ([3]; A→B)?
**A.** The recovery was 69%.

**Q.** What about the recovery ([3]; B→A) of the same compound?
**A.** The recovery was 80%.

**Q.** For `CNC(=C[N+](=O)[O-])NCCSCc1ccc(CN(C)C)o1` [Ranitidine], which Papp A→B at 10 µM [3] is on record?
**A.** The Papp A→B at 10 µM was 0.91 ×10⁻⁶ cm/s.

**Q.** What about the Papp B→A at 10 µM [3] of the same compound?
**A.** Its Papp B→A at 10 µM is 3.02 ×10⁻⁶ cm/s.

**Q.** What about the efflux ratio at 10 µM [3] of the same compound?
**A.** The efflux ratio at 10 µM was 3.34.

**Q.** What about the recovery ([3]; A→B) of the same compound?
**A.** The recovery was 78%.

**Q.** And the recovery ([3]; B→A)?
**A.** Its recovery is 87%.

**Q.** With INT-777 as the compound, how does the “Gallbladder emptying (gallbladder weight, egg yolk vs saline)” value (gallbladder emptying) read?
**A.** Its value is “inhibition of gallbladder emptying”.

**Q.** Which results are given for liraglutide?
**A.** 4-h fasted plasma insulin vs vehicle ([2]; day 29, agent alone): lowered; Hepatic triglyceride levels ([2]; day 29, agent alone, RDX8940 P < 0.001): reduced; Hepatic cholesterol levels ([2]; day 29, agent alone, RDX8940 P < 0.01): reduced; Liver weight ([2]; day 29, agent alone, RDX8940 P < 0.05): reduced; 4-h fasted plasma glucose vs vehicle [2]: lowered; Hepatic total cholesterol content vs vehicle (C57BL/6 mice fed HFCD): significantly decreased; Hepatic triglyceride content vs vehicle (C57BL/6 mice fed HFCD): significantly decreased; Hepatic weight vs vehicle (C57BL/6 mice fed HFCD): significantly decreased; Plasma ALT levels vs vehicle (C57BL/6 mice fed HFCD): significantly decreased; Plasma AP levels vs vehicle (C57BL/6 mice fed HFCD): significantly decreased; Plasma AST levels vs vehicle (C57BL/6 mice fed HFCD): significantly decreased; Plasma glucose (C57BL/6 mice fed HFCD): 185 ± 13 mg/dL; Plasma total bilirubin levels (C57BL/6 mice fed HFCD): Neither liraglutide nor teduglutide significantly affected; Plasma total cholesterol (C57BL/6 mice fed HFCD): 230 ± 16 mg/dL; Plasma triglycerides (C57BL/6 mice fed HFCD): 59 ± 3 mg/dL; Body weight (C57BL/6 mice fed HFCD): 31.4 ± 0.8 g; Plasma insulin (C57BL/6 mice fed HFCD): 0.40 ± 0.11 ng/mL; HFCD-increased hepatic expression of genes involved in inflammation and fibrotic processes (C57BL/6 mice fed HFCD): abrogated this effect in many cases; Fibrosis score (C57BL/6 mice fed HFCD; median): 2; Microvesicular steatosis score (C57BL/6 mice fed HFCD; median): 0.5 ^****
